From patent US11147272B2, “Pyridone compounds and agricultural and horticultural fungicides comprising the same as active ingredients” (MITSUI CHEMICALS AGRO, INC., priority 2017, dated 2021)

Legend:
[1] = system: Magnaporthe grisea; experiment: whole plant or invertebrate; type: in vivo; details: for Test A control value class: class of control value
[2] = system: Alternaia brassicicola; experiment: Test Example C: Alternaria sooty spot on cabbage; type: in vivo; details: for Test C control value class: class of control value
Description: Seeds of a test plant (cabbage variety: Shikidori) were planted and cultivated until the cotyledons extended.
<Control Value> Control value=100{1−(n/3)}

[3] = system: Puccinia recondita; experiment: Test Example E: Brown rust on wheat; type: in vivo; details: for Test E control value class: class of control value
[4] = system: Phytophthora infestans; experiment: whole plant or invertebrate; type: in vivo; details: for Test F control value class: class of control value
[5] = system: Botrytis cinerea; experiment: Test Example B: Gray mold on tomato; details: for Test B control value class: class of control value
Description: Seeds of a test plant (tomato variety: Oogata Fukuju) were planted and cultivated until three to five first leaves (true leaves) appeared. In the test, the inventive compounds were dissolved into dimethyl sulfoxide-methanol mixture solution (volume ratio: 9/1), and the resultant solutions were diluted with well water to a concentration of 250 ppm to obtain the drug solutions. The drug solutions were sprayed to the test plant (2.5 ml/pot). After the drug solutions dried, a conidial suspension (4-8×10^5 conidia/ml) of Botrytis cinerea was inoculated to the plant by spraying. After the inoculation, the plant was kept in a mist chamber at room temperature of 20 to 23° C. for about 48 hours to promote the onset of disease. The degrees of disease development were investigated 2 to 3 days after the inoculation, and the effectiveness of the drug solutions was evaluated.
(§1) In Test Examples described above, the degrees of disease development were evaluated in increments of 0.05 from 0 (as no incidence of disease) to 3 (as the degree of disease development in an untreated plant group). Further, control values were calculated using the following equation based on the degree of disease development.
(§2) n=Degree of disease development in each treated group
In the table, H: more than 50% control value, L: 50% or less control value, and nt: not tested.

[6] = system: Plasmopara viticola; experiment: Test Example G: Downy mildew on vine; details: for Test G control value: 7 to 10 days after inoculation; for Test G control value class: Downy mildew on vine (Neomuscat), 2.5 ml/pot, assessed 7 to 10 days after inoculation
Description: Seeds of a test plant (grape variety: Neomuscat) were planted and cultivated until three to four first leaves appeared. In the test, the inventive compounds were dissolved into dimethyl sulfoxide-methanol mixture solution (volume ratio: 9/1), and the resultant solutions were diluted with well water to a concentration of 250 ppm to obtain the drug solutions. The drug solutions were sprayed to the test plant (2.5 ml/pot). After the drug solutions dried, a zoosporangia suspension (1-2×10^4 zoosporangia/ml) of Plasmopara viticola was inoculated to the plant by spraying. After the inoculation, the plant was kept in a mist chamber at room temperature of 20° C. for about 24 hours to promote the onset of disease. The degrees of disease development were investigated 7 to 10 days after the inoculation, and the effectiveness of the drug solutions was evaluated.
as §1, §2

[7] = system: Colletotrichum orbiculare; experiment: Test Example H: Anthracnose on cucumber; details: for Test H control value: 6 to 10 days after inoculation; for Test H control value class: Anthracnose on cucumber (Sagami Hanjiro), 2.5 ml/pot, assessed 6 to 10 days after inoculation
[8] = system: Blumeria graminis f. sp. hordei; experiment: Test Example D: Powdery mildew on barley; details: for Test D control value class: class of control value
[9] = Blast on rice, control value class
[10] = Alternaria sooty spot on cabbage, control value class
[11] = Brown rust on wheat, control value class
[12] = Late blight on tomato, control value class
[13] = Gray mold on tomato, control value class
[14] = Downy mildew on vine, 250 ppm spray
[15] = Anthracnose on cucumber, 250 ppm spray
[16] = Powdery mildew on barley, control value class
[17] = Alternaria sooty spot on cabbage
[18] = 250 ppm drug solution sprayed on test plant
[19] = 250 ppm drug solution sprayed (2.5 ml/pot), grape Neomuscat
[20] = 250 ppm drug solution sprayed (2.5 ml/pot), cucumber Sagami Hanjiro

Row | SMILES | Test A control value class ([1]; Blast on rice) | Test C control value class [2, 17] | Test E control value class ([3]; Brown rust on wheat) | Test F control value class ([4]; Late blight on tomato) | Test B control value class ([5]; Gray mold on tomato) | Test G control value class ([6]; 250 ppm spray) | Test H control value class ([7]; 250 ppm spray) | Test D control value class ([8]; Powdery mildew on barley) | Test A control value [1, 18] | Test C control value [2, 18] | Test E control value [3, 18] | Test F control value [4, 18] | Test B control value [5, 18] | Test G control value [6, 19] | Test H control value [7, 20] | Test D control value [8, 18] | further results
1 | CCCOC(C)(c1cc(Cl)c(=O)n(CC)c1-c1c(F)cc(OC)cc1F)C(C)C (centres unmarked) [compound 242] | – | – | – | – | – | – | – | – | – | – | – | – | – | – | – | – | Test A control value [1, 9]: L (50% or less control value); Test C control value [2, 10]: H (more than 50% control value); Test E control value [3, 11]: L (50% or less control value); Test F control value [4, 12]: L (50% or less control value); Test B control value [5, 13]: L (50% or less control value); Test G control value [6, 14]: L (50% or less control value); Test H control value [7, 15]: L (50% or less control value); Test D control value [8, 16]: L (50% or less control value)
2 | CCn1c(-c2c(F)cc(OC)cc2F)c(C(=O)C(C)(C)C)cc(Cl)c1=O [compound 179] | H (more than 50% control value) | H (more than 50% control value) | H (more than 50% control value) | L (50% or less control value) | H (more than 50% control value) | L (50% or less control value) | H (more than 50% control value) | H (more than 50% control value) | – | – | – | – | – | – | – | – | –
3 | COc1cc(F)c(-c2c(C(C)(C)C)cc(Br)c(=O)n2C)c(F)c1 [compound 82] | L (50% or less control value) | H (more than 50% control value) | H (more than 50% control value) | L (50% or less control value) | H (more than 50% control value) | H (more than 50% control value) | H (more than 50% control value) | L (50% or less control value) | – | – | – | – | – | – | – | – | –
4 | COC(C)(c1cc(Br)c(=O)n(C)c1-c1c(F)cc(F)cc1F)C(C)C (centres unmarked) [compound 432] | – | – | – | – | – | – | – | – | H (more than 50% control value) | H (more than 50% control value) | H (more than 50% control value) | L (50% or less control value) | H (more than 50% control value) | L (50% or less control value) | H (more than 50% control value) | H (more than 50% control value) | –
5 | CCCc1ccc(=O)n(CC(F)F)c1-c1c(F)cc(OC)cc1F [compound 474] | – | – | – | – | – | – | – | – | H (more than 50% control value) | H (more than 50% control value) | H (more than 50% control value) | L (50% or less control value) | H (more than 50% control value) | H (more than 50% control value) | H (more than 50% control value) | H (more than 50% control value) | –
6 | CCc1cc(Cl)c(=O)n(C)c1-c1ccc(OC)cc1Cl [compound 324] | – | – | – | – | – | – | – | – | – | – | – | – | – | – | – | – | Test A control value [1, 9]: L (50% or less control value); Test C control value [2, 10]: H (more than 50% control value); Test E control value [3, 11]: H (more than 50% control value); Test F control value [4, 12]: L (50% or less control value); Test B control value [5, 13]: H (more than 50% control value); Test G control value [6, 14]: H (more than 50% control value); Test H control value [7, 15]: H (more than 50% control value); Test D control value [8, 16]: L (50% or less control value)
7 | CCn1c(-c2c(F)cc(OC)cc2F)c(CN(C)C(C)C)cc(Cl)c1=O [compound 88] | L (50% or less control value) | H (more than 50% control value) | H (more than 50% control value) | L (50% or less control value) | H (more than 50% control value) | L (50% or less control value) | L (50% or less control value) | H (more than 50% control value) | – | – | – | – | – | – | – | – | –
8 | CCn1c(-c2ccc(F)cc2Br)c(CC(C)C)ccc1=O [compound 199] | – | – | – | – | – | – | – | – | – | – | – | – | – | – | – | – | Test A control value [1, 9]: H (more than 50% control value); Test C control value [2, 10]: H (more than 50% control value); Test E control value [3, 11]: H (more than 50% control value); Test F control value [4, 12]: H (more than 50% control value); Test B control value [5, 13]: H (more than 50% control value); Test G control value [6, 14]: H (more than 50% control value); Test H control value [7, 15]: H (more than 50% control value); Test D control value [8, 16]: H (more than 50% control value)
9 | CC#CCOc1cc(F)c(-c2c(CCC)ccc(=O)n2CC)c(F)c1 [compound 460] | – | – | – | – | – | – | – | – | H (more than 50% control value) | H (more than 50% control value) | H (more than 50% control value) | L (50% or less control value) | H (more than 50% control value) | H (more than 50% control value) | H (more than 50% control value) | H (more than 50% control value) | –
10 | CCCc1cc(Br)c(=O)n(CC)c1-c1c(F)cc(F)cc1F [compound 389] | – | – | – | – | – | – | – | – | H (more than 50% control value) | H (more than 50% control value) | H (more than 50% control value) | L (50% or less control value) | H (more than 50% control value) | L (50% or less control value) | H (more than 50% control value) | H (more than 50% control value) | –
11 | CCn1c(-c2ccc(F)cc2F)c(CC(C)C)cc(Br)c1=O [compound 120] | H (more than 50% control value) | H (more than 50% control value) | H (more than 50% control value) | L (50% or less control value) | H (more than 50% control value) | L (50% or less control value) | H (more than 50% control value) | H (more than 50% control value) | – | – | – | – | – | – | – | – | –
12 | CCn1c(-c2ccc(F)cc2)c(CC(C)C)cc(Cl)c1=O [compound 149] | H (more than 50% control value) | H (more than 50% control value) | H (more than 50% control value) | L (50% or less control value) | H (more than 50% control value) | H (more than 50% control value) | H (more than 50% control value) | H (more than 50% control value) | – | – | – | – | – | – | – | – | –
13 | COCCOc1cc(F)c(-c2c(C(C)(C)C)cc(Cl)c(=O)n2C)c(F)c1 [compound 84] | L (50% or less control value) | H (more than 50% control value) | L (50% or less control value) | L (50% or less control value) | L (50% or less control value) | L (50% or less control value) | H (more than 50% control value) | L (50% or less control value) | – | – | – | – | – | – | – | – | –
